US9205137B2, “Maturation of gastrointestinal tract” (ANARA AB, priority 2010, dated 2015)
Marks after values point to notes of the source that are not given here.

What was measured:
[1] = tested on: suckling rats; assay: Set II: intestinal morphology of distal SI at different doses of protease, Example 4; format: in vivo, Rattus norvegicus; conditions: in words (FIG. 8)
Protocol: (§1) The second study was about comparing the effect of different doses of protease (15000 USP, 7500 USP, 3750 USP and […]) on the development of the GI tract with control. In this experiment 2 litters of pups were used (n=13 and n=12). Pups were divided into five groups to fed with different doses of protease; 15000 USP (n=3), P7500 USP (n=6), P 3750 USP (n=6), P 1875 USP (n=5) and water as a control (n=5). The feeding was during 3 continuous days, once a day. 24 hours after the last feeding, on day 17, similar dissection steps and analytical procedures as mentioned for the previous experiment were followed.
All samples collected for histology were fixed with Bouin's solution for 24 hours and then stored in 70% ethanol, dehydrated, embedded into the paraffin and then cut into sections with 5 μm thickness. The tissue sections were transferred onto the slides, rehydrated and stained with H&E according to the standard technique. After mounting under cover slips samples were examined using light microscopy to estimate ratio between total length of the villus and length of the adult type enterocytes using ImageJ program.

[2] = tested on: suckling rats; assay: Set II: different doses of protease, organ weights, stomach pH and body weight, Example 4; format: in vivo, Rattus norvegicus; design: mean body weight Bwt 1/Day 14 / mean body weight Bwt2/Day 15 / mean body weight Bwt3/Day 16 / mean body weight Bwt4/Day 17: unit not given here; conditions: for Cecum / Distal SI / Liver / Pancreas / Proximal SI / SI length / Spleen / Stomach / Thymus: day 17; for pH: stomach contents
Protocol: as §1
All data are presented as mean±standard deviation (SD). […] Results were considered as significant when P<0.05.

[3] = tested on: suckling rats; assay: Set I: body weight, GI and lymphoid organ weights, stomach pH after individual enzymes or mixture, Example 3
Protocol: All experiments were performed in young suckling rats by feeding them from 14 days of age via stomach tube for 3 continuous days (ones a day). One day after last treatment rats were euthanized and plasma and organs proceeded to study structural and functional changes of gastrointestinal system.
The pups were kept with their dam until dissection day (day 17).
In this set suckling pups were divided into five groups; control (water) amylase 10 000 USP/rat/day, lipase 4 000 USP/rat/day, protease 15 000 USP/rat/day, and mixture of these enzyme with corresponding activities per rat and day. This study was evaluating the effects of different pancreatic-like enzymes on the gut maturation and functioning and had 3 individual litters; n=12, n=10 and n=13, totally n=7 pups per each group. Each of the enzymes (Amylase, Protease and Lipase) (Sigma Aldrich) was available in the powder form and was resolved in distilled water prior to stomach feeding during days 14, 15 and 16. The volume of administered enzymes and distilled water (for control groups) was 0.01 ml/g BW. Each time, prior to the feeding procedure, the pups were weighed. […] Then 3 hours later, the pups were sedated with CO2 and anaesthetized by subcutaneous injection with a mixture of ketamine (Ketalar®, Pfizer, New York, USA, NaCl and azaperone (Stresnil®, Janssen Pharmaceutica, Beerse, Belgium), 0.01 ml/g BW. After opening the abdomen of the rats, 1 ml of blood was collected from heart by using syringes containing protease inhibitor and EDTA (50 μl) as anticoagulant and was transferred into ice-chilled tubes. After this, the pancreas was immediately dissected and rinsed with cold 0.9% NaCl, weighted and stored at −70 C. The SI was removed and its length was measured then divided into two halves, proximal and distal. Each segment was flushed out with cold 0.9% NaCl to clean the lumen and was then weighed separately. […] The stomach was removed and its content was collected into the tube (for measuring its pH) and frozen. Then cecum was dissected out, opened, rinse and weighed as well as liver and lymphoid organs spleen and thymus were dissected and weighted.
The contents of the stomach were de-frozen and then resolved with 1 ml of cold 0.9% NaCl. After resolving, they were centrifuged and the pH was measured in the supernatant using pH-meter.
All data are presented as mean±standard deviation (SD). Statistical comparisons between each group and control group were performed using the t-test. Results were considered as significant when P<0.05.

## Proteinase from Aspergillus melleus [Protease]
[1]; protease 1875 USP
  vacuolated (fetal-type) enterocytes in distal SI: limited to the middle and the tip of the villi
[1]; protease 3750 USP
  vacuolated (fetal-type) enterocytes in distal SI: limited to the middle and the tip of the villi
[1]; protease 7500 USP
  vacuolated (fetal-type) enterocytes in distal SI: limited to the middle and the tip of the villi
[1]; protease 15000 USP
  vacuolated (fetal-type) enterocytes in distal SI: all of the vacuolated enterocytes disappeared
[2]; highest dose of protease, after first dose on day 14
  diarrhoea: signs of diarrhoea
[2]; protease 15 000USP
  mean body weight Bwt 1/Day 14: 28.7
  mean body weight Bwt2/Day 15: 27.4*
  mean body weight Bwt3/Day 16: 28.2*
  mean body weight Bwt4/Day 17: 30.1*
[2]; protease 1875USP
  mean body weight Bwt 1/Day 14: 28.2
  mean body weight Bwt2/Day 15: 31.7
  mean body weight Bwt3/Day 16: 32.9
  mean body weight Bwt4/Day 17: 34.8
[2]; protease 1875 USP
  Cecum: 2.3 ± 0.2 mg/g BW
  Distal SI: 13.3 ± 1.4 mg/g BW
  Liver: 31.7 ± 1.1 mg/g BW
  Pancreas: 3.0 ± 0.4 mg/g BW
  Proximal SI: 16.4 ± 0.8 mg/g BW
  SI length: 1.5 ± 0.0 cm/g BW
  Spleen: 3.3 ± 0.4 mg/g BW
  Stomach: 6.1 ± 0.3 mg/g BW
  Thymus: 5.6 ± 0.3 mg/g BW
  pH: 4.1 ± 0.2
[2]; protease 3750USP
  mean body weight Bwt 1/Day 14: 28.5
  mean body weight Bwt2/Day 15: 30.5
  mean body weight Bwt3/Day 16: 32.3
  mean body weight Bwt4/Day 17: 33.3
[2]; protease 3750 USP
  Cecum: 2.8 ± 0.3 mg/g BW
  Distal SI: 14.7 ± 1.1 mg/g BW
  Liver: 32.8 ± 1.7 mg/g BW
  Pancreas: 3.2 ± 0.3 mg/g BW
  Proximal SI: 17.6 ± 1.5 mg/g BW
  SI length: 1.5 ± 0.1 cm/g BW
  Spleen: 3.3 ± 0.5 mg/g BW
  Stomach: 6.4 ± 0.3 mg/g BW
  Thymus: 5.6 ± 0.8 mg/g BW
  pH: 4.1 ± 0.4
[2]; protease 7500USP
  mean body weight Bwt 1/Day 14: 28.9
  mean body weight Bwt2/Day 15: 30.6
  mean body weight Bwt3/Day 16: 32.2
  mean body weight Bwt4/Day 17: 33.6
[2]; protease 7500 USP
  Cecum: 3.0 ± 0.2 mg/g BW
  Distal SI: 15.4 ± 1.7 mg/g BW
  Liver: 33.0 ± 1.6 mg/g BW
  Pancreas: 3.4 ± 0.4 mg/g BW
  Proximal SI: 19.3 ± 2.0 mg/g BW
  SI length: 1.8 ± 0.1 cm/g BW
  Spleen: 3.1 ± 0.1 mg/g BW
  Stomach: 6.3 ± 0.4 mg/g BW
  Thymus: 4.8 ± 0.6 mg/g BW
  pH: 3.9 ± 0.7
[2]; protease 15000 USP
  Cecum: 4.2 ± 0.1 mg/g BW
  Distal SI: 18.6 ± 1.0 mg/g BW
  Liver: 38.5 ± 2.4 mg/g BW
  Pancreas: 4.8 ± 0.2 mg/g BW
  Proximal SI: 28.2 ± 1.7 mg/g BW
  SI length: 1.8 ± 0.1 cm/g BW
  Spleen: 3.0 ± 0.3 mg/g BW
  Stomach: 6.9 ± 0.7 mg/g BW
  Thymus: 3.0 ± 0.2 mg/g BW
  pH: 3.4 ± 0.8
[3]; 3 days treatment, day 17
  Body weight: 33.6 ± 1.9 gr
  Cecum: 4.0 ± 0.5 mg/g BW
  Distal SI: 17.8 ± 2.5 mg/g BW
  Liver: 35.8 ± 2.5 mg/g BW
  Pancreas: 4.3 ± 0.4 mg/g BW
  Proximal SI: 24.7 ± 3.5 mg/g BW
  SI length: 1.7 ± 0.1 cm/g BW
  Spleen: 3.4 ± 0.5 mg/g BW
  Stomach: 7.2 ± 0.7 mg/g BW
  Thymus: 3.96 ± 0.4 mg/g BW
[3]; after receiving the first dose
  diarrhoea: diarrhoea observed after receiving the first dose
[3]; stomach contents, day 17
  pH: 3.5 ± 0.3
